Laboratory results reported in patent publication US12459931B2, “Benzothiophene derivative regulator, preparation method therefor and use thereof” (Shanghai Hansoh Biomedical Co., Ltd., priority 2019, dated 2025).
Read-outs that look alike come from different tables or passages of the source.

What was measured:
[1] = Stability assay in liver microsome in vitro; type: in vitro ADME, Mouse
Protocol: IV. Stability Assay in Liver Microsome In Vitro
To evaluate the metabolic stability of the compounds of the present invention in liver microsome in vitro.
Formulation of the working solution of the compound: 2 μL of the stock solution of the compound was added to 998 μL of phosphate buffer, and the final concentration was 20 μM.
Formulation of the working solution of the control compound (7-hydroxycoumarin): The formulation was consistent with that of the compound. • 3.2. Formulation of the working solution of liver microsome
78.1 μL of 20 mg/mL microsome was diluted to 2.5 mL with 100 mM phosphate buffer and mixed well, and the final concentration was 0.625 mg/mL. • 3.3. Formulation of NADPH and UDPGA
33.3 mg of NADPH and 25.8 mg of UDPGA were weighed respectively, followed by the addition of 2 mL of 100 mM phosphate buffer. The final concentrations were 20 mM. • 3.4. Formulation of the channel-forming reagent (Alamethicin)
1 mg of Alamethicin was weighed, to which 200 μL of DMSO was added to obtain a 5 mg/mL solution. 10 μL of this solution was added to 990 μL of phosphate buffer (pH 7.4), and the final concentration was 50 μg/mL. • 3.5. Formulation of the reaction stop solution
Stop solution: Cold acetonitrile containing 100 ng/mL labetalol hydrochloride and 400 ng/mL tolbutamide was used as internal standards, and stored in a refrigerator at 2 to 8° C. • 3.6. Incubation procedure
400 μL of the formulated liver microsome, 25 μL of the working solution of the compound […] and 25 μL of Alamethicin (50 μg/mL) were added to a 96-well plate successively, which was then pre-incubated at 37° C. for 10 min. 50 μL of the formulated NADPH/UDPGA was added to initiate the reaction, and the plate was incubated at 37° C. The total volume of the reaction system was 500 μL. The final contents of the components were as follows:
[…] The resulting sample was centrifuged at 4000 g for 10 min, and the supernatant was collected for LC-MS/MS analysis.

[2] = system: Rats F344; test: Pharmacodynamic model of active escape experiment in rats; type: in vivo; settings: oral, dose 1 mg/kg, one hour before the test
Protocol: V. Pharmacodynamic Model of Active Escape Experiment in Rats
To evaluate the anti-schizophrenic effect of the compounds using the pharmacodynamic model of the active escape experiment in rats.
4. Formulation of the Vehicle and Compounds: • 4.1 Vehicle (0.5% CMC-Na+1% Tween80)
A certain mass (such as 1.0 g) of CMC-Na was weighed into a glass bottle, a certain volume (such as 200 mL) of purified water was added, and the resulting mixture was stirred to disperse evenly. 1% (v/v) Tween 80 was added according to the solution volume, and the resulting mixture was stirred overnight to obtain a homogeneous clear solution, which was stored at 2 to 8° C. for later use. • 4.2 Formulation of the compounds: […]
A formula amount of the compound was weighed, followed by the addition of a formula volume of 0.5% CMC-Na+1% Tween 80 solution. The compound solution was formulated before the administration, stored at 2 to 8° C., and used within 4 days.
The day before the compound screening test, a baseline test was performed. The test procedure was the same as 5.1.1 to 5.1.3, and the number of the baseline test was 20. The animals whose number of avoids reached 16 (80%) were grouped according to the number of avoids, 10 animals per group. The first group was administered with the vehicle orally, and the other groups were administered with the corresponding test compounds according to the experimental design. • 5.3 Compound screening test
The compound was administered orally (5 mL/kg) one hour before the test;
The test procedure was the same as 5.1.1 to 5.1.4, and the number of the test was 20.
The following data was collected by the software for data analysis: • Number of avoids of the animal; • Number of escape failures of the animal; • Escape latency of the animal;
All measurement data were expressed as mean±standard error (Mean±SEM), and analyzed by Graphpad 6 statistical software. The difference was considered to be significant when p<0.05.

[3] = biological target: Human Dopamine D3 Receptor (Homo sapiens (Human), UniProt P35462); test: Radioligand-receptor binding assay, dopamine D3 receptor ([3H]-methylspiperone); settings: [3H]-methylspiperone 0.5 nM, human D3 receptor membrane
Protocol: Determination of the Binding Ability of the Compounds of the Present Invention to Dopamine D3 Receptor
The objective of this test example is to determine the affinity of the compounds for dopamine D3 receptor.
Assay buffer: 50 mM Tris-HCl pH 7.4, 10 mM MgCl2; wash solution: 50 mM Tris-HCl pH 7.4, stored at 4° C.; 0.5% PEI solution: 0.5 g PEI dissolve in 100 mL ddH2O, 4° C. storage of spare.
(§1) 5 μL of the test compounds (0.005 nM to 100 nM, 10 concentrations in total) and 100 μL of buffer were added to a 96-well assay plate. 1 μL of cell membrane and 300 μL of buffer were added to each well, and the plate was shaken at 600 rpm for 5 min. A mixed solution of 100 μL of buffer and [^3H]-methylspiperone (the final concentration was 0.5 nM) was added to each well. The plate was shaken at 600 rpm for 5 min, and incubated at 27° C. for 30 min. The […]-96 GF/B filter plate pre-incubated with 0.5% PEI for 1 h was washed twice with the buffer (1 mL/well). The cell membrane suspension was added to the […]-96 GF/B filter plate, washed 4 times, and incubated at 55° C. for 10 min. 40 μL of ULTIMA GOLD was added to each well, and liquid scintillation counting was carried out.
(§2) The CPM (Counts per minute) values were determined by TopCount. […] The 10 concentrations of the compound were from 100 nM to 0.005 nM after 3-fold dilution of the reaction system. The percent inhibition rate and ten-point concentration data were fitted to the parametric nonlinear logistic equation by using GraphPad prism to calculate the IC50 values of the compound.

[4] = biological target: T1, 5-HT2A receptor (Homo sapiens (Human), UniProt P28223); test: Radioligand-receptor binding assay, 5-HT2A receptor ([3H]-Ketanserin); settings: [3H]-Ketanserin 2 nM, human 5-HT2A receptor membrane; read-out: 5HT-2A binding activity IC50
Protocol: Determination of the Binding Ability of the Compounds of the Present Invention to 5-HT2A Receptor
The objective of this test example is to determine the affinity of the compounds for 5-HT2A receptor.
Assay buffer: 50 mM Tris-HCl pH 7.4, 4 mM CaCl2); wash solution: 50 mM Tris-HCl pH 7.4, stored at 4° C.; 0.5% PEI solution: 0.5 g PEI dissolve in 100 mL ddH2O, 4° C. storage of spare.
as §1, with “plate. 1.5” for “plate. 1”, “300 L” for “300 μL”, “each well. The” for “each well, and the”, “and [^3H]-Ketanserin” for “and [^3H]-methylspiperone”, “was 2” for “was 0.5”
as §2

[5] = biological target: T1, 5-HT2A receptor; test: Effect on calcium ion mobility in cells stably expressing 5-HT2A receptors (Flp-In-CHO-5HT2A, FLIPR); type: cell-based; settings: Flp-In-CHO-5HT2A cells, 5HT as agonist
Protocol: To determine the inhibitory effect of the compounds on 5-HT2A receptor.
Probenecid and BSA were added fresh on the day of the experiment.
The calcium signal values were determined by FLIPR. […] The percent inhibition rate and ten-point concentration data were fitted to the parametric nonlinear logistic equation by using GraphPad prism to calculate the IC50 values of the compound.

[6] = Pharmacokinetic assay in Balb/c mice (plasma and brain tissue); type: in vivo; settings: p.o. 5 mg/kg; for AUC(0-t) / AUC(0-inf) / Cmax / MRT / half-life: male, Balb/c, mouse, po; for AUC(0-t): read-out: Area under curve AUC0-t; for AUC(0-inf): read-out: Area under curve AUC0-∞; for Cmax: read-out: Plasma concentration Cmax; for MRT: read-out: Average residence time MRT; for half-life: read-out: Half life t1/2 (converted)
Protocol: III. Pharmacokinetic Assay in Balb/c Mice
Balb/c mice were used as test animals. The pharmacokinetic behavior of the compounds of Examples of the present invention was studied in mouse body (plasma and brain tissue) by orally administration at a dose of 5 mg/kg.
Male Balb/c mice (12 mice per group), purchased from Shanghai Jiesijie Laboratory Animal Co., LTD, with Certificate No.: SCXK (Shanghai) 2013-0006 N0.311620400001794. • 2.3 Formulation of the preparation: […]
The test compound was dissolved in 0.5% CMC-Na (1% Tween80) by sonication to formulate a clear solution or homogeneous suspension. • 2.4 Administration:
After an overnight fast, male Balb/c mice (12 mice per group) were administered p.o. with the test compound at a dose of 5 mg/kg and a volume of 10 mL/kg. • 2.5 Sample collection:
0.2 mL of blood was taken from the heart of the mouse before administration and at 1, 2, 4, 8 and 24 hours after administration, and the mice were sacrificed with CO2. The samples were stored in EDTA-K2 tubes, and centrifuged for 6 minutes at 4° C., 6000 rpm to separate the plasma. The plasma samples were stored at −80° C. Whole brain tissue was taken out, weighed, placed in a 2 mL centrifuge tube, and stored at −80° C. • 2.6 Sample process:
1) 160 μL of acetonitrile was added to 40 μL of the plasma sample for precipitation, and then the mixture was centrifuged at 3500×g for 5 to 20 minutes.
2) 90 μL of acetonitrile containing internal standard (100 ng/mL) was added to 30 μL of the plasma and brain homogenate sample for precipitation, and then the mixture was centrifuged at 13000 rpm for 8 minutes.
3) 70 μL of water was added to 70 μL of the treated supernatant and mixed by vortex for 10 minutes. 20 μL of the solution was taken to analyze the concentration of the test compound by LC/MS/MS. LC/MS/MS analytical instrument: AB Sciex API 4000 Qtrap. • 2.7 Liquid chromatography analysis: • Liquid chromatography condition: Shimadzu LC-20AD pump • Chromatographic column: Agilent ZORBAX XDB-C18 (50×2.1 mm, 3.5 μm); Mobile phase: Eluent A was 0.1% formic acid in water, and Eluent B was acetonitrile • Flow rate: 0.4 mL/min • Elution time: 0-4.0 minutes the eluent is as follows:
The main parameters of pharmacokinetics were calculated by WinNonlin 6.1.

[7] = biological target: D3 receptor (Homo sapiens (Human), UniProt P35462); test: Effect on cAMP content in cells stably expressing D3 receptors (CHO-D3); type: cell-based; settings: forskolin stimulated, activation
Protocol: To determine the activation effect of the compounds on D3 receptor.
3. The experimental buffer (1*HBSS, 0.1% BSA, 20 mM HEPES and 500 μM IBMX) was prepared. The compound was diluted with the buffer. 2.5 μL of the compound solution was added to each well, and the plate was incubated at 37° C. for 10 minutes. The forskolin was diluted to 8 μM (8*) with the experimental buffer. […] The reaction plate was centrifuged at 200 g for 30 s at room temperature, and left to stand at 25° C. for 1 h. Data was collected using Envision.

Chain of Human Dopamine D3 Receptor (P35462 whole entry): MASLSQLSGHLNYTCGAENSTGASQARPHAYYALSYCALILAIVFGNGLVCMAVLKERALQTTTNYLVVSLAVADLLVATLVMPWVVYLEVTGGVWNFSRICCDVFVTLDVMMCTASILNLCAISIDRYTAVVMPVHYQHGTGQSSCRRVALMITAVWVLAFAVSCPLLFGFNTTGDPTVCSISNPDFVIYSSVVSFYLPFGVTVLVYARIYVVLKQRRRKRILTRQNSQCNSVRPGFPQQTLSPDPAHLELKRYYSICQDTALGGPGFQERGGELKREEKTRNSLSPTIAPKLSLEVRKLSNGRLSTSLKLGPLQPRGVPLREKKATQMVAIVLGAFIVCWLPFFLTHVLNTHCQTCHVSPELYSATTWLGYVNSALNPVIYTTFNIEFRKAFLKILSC
T1 sequence (P28223 whole entry): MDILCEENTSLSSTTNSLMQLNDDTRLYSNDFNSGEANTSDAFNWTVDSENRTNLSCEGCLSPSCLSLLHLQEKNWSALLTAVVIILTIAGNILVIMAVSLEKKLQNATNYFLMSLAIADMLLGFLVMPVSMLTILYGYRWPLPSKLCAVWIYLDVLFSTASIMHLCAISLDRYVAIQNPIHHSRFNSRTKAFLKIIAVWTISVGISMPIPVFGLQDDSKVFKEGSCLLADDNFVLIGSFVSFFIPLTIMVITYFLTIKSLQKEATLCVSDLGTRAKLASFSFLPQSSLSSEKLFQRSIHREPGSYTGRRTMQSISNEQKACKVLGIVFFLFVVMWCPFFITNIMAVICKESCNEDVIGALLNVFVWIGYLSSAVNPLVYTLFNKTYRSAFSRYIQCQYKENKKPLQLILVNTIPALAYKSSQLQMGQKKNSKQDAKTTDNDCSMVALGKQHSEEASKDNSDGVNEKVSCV
Chain of D3 receptor (P35462 whole entry): as the sequence (P35462 whole entry) above

half-life at 1 μM ([1]; CD-1, liver microsomes, pH 7.4, Mouse liver microsome 0.5 mg/mL, compound 1 μM, NADPH/UDPGA, read-out: Half life (t1/2)) [h]	microsomal CLint at 1 μM ([1]; CD-1, liver microsomes, pH 7.4, Mouse liver microsome, note: Slow <8.8, Rapid >48.0, read-out: Intrinsic clearance rate (CLint)) [µL/min/mg]	Remaining (%, 120 min) ([1]; Mouse liver microsome, 120 min) [%]	IC50 [3] [nM]	IC50 [4] [nM]	IC50 [5] [nM]	Peak time tmax ([6]; Brain) [h]	Peak time tmax ([6]; Plasma) [h]	AUC(0-t) ([6]; Brain) [ng·h/mL]	AUC(0-inf) ([6]; Brain) [ng·h/mL]	Cmax ([6]; Brain) [ng/mL]	AUC(0-t) ([6]; Plasma) [ng·h/mL]	AUC(0-inf) ([6]; Plasma) [ng·h/mL]	MRT ([6]; Plasma) [h]	half-life ([6]; Plasma) [h]	Cmax ([6]; Plasma) [ng/mL]	EC50 [7] [nM]	Compound	CAR value [2] [%]	EF [2] [%]
1.1	21.1	30.5	–	–	–	–	–	–	–	–	–	–	–	–	–	–	CN(C)C(=O)N[C@H]1CC[C@H](CCN2CCN(c3cccc(Cl)c3Cl)CC2)CC1 [Cariprazine, reference compound]	45.5	5.5
–	–	–	0.83	0.43	3.16	1	6	4590	4960	328	3070	3390	9.21	7.3	192	–	O=C(N[C@H]1CC[C@](F)(CCN2CCN(c3cccc4sccc34)CC2)CC1)c1ccco1 [Example 40, N-(Cis-4-(2-(4-(benzo[b]thiophen-4-yl)piperazin-1-yl)ethyl)-4-fluorocyclohexyl)furan-2-carboxamide]	–	–
–	–	–	0.43	0.37	–	1	1	14100	16500	1390	4140	4860	11.8	8.9	403	0.1	O=C(N[C@H]1CC[C@H](CCN2CCN(c3cccc4sccc34)CC2)CC1)c1ncco1 [Example 43, N-(Trans-4-(2-(4-(benzo[b]thiophen-4-yl)piperazin-1-yl)ethyl)cyclohexyl)oxazole-2-carboxamide]	–	–

Compound	half-life at 1 μM ([1]; CD-1, liver microsomes, pH 7.4, Mouse liver microsome 0.5 mg/mL, compound 1 μM, NADPH/UDPGA, read-out: Half life (t1/2)) [h]	microsomal CLint at 1 μM ([1]; CD-1, liver microsomes, pH 7.4, Mouse liver microsome, note: Slow <8.8, Rapid >48.0, read-out: Intrinsic clearance rate (CLint)) [µL/min/mg]	Remaining (%, 120 min) ([1]; Mouse liver microsome, 120 min) [%]	IC50 [3] [nM]	IC50 [4] [nM]	IC50 [5] [nM]	Peak time tmax ([6]; Brain) [h]	Peak time tmax ([6]; Plasma) [h]	AUC(0-t) ([6]; Brain) [ng·h/mL]	AUC(0-inf) ([6]; Brain) [ng·h/mL]	Cmax ([6]; Brain) [ng/mL]	AUC(0-t) ([6]; Plasma) [ng·h/mL]	AUC(0-inf) ([6]; Plasma) [ng·h/mL]	MRT ([6]; Plasma) [h]	half-life ([6]; Plasma) [h]	Cmax ([6]; Plasma) [ng/mL]	EC50 [7] [nM]	CAR value [2] [%]	EF [2] [%]
O=C(NC1CCC(CCN2CCN(c3cccc4sccc34)CC2)CC1F)c1ccco1 (stereo not drawn) [Example 51, N-(4-(2-(4-(Benzo[b]thiophen-4-yl)piperazin-1-yl)ethyl)-2-fluorocyclohexyl)furan-2-carboxamide]	–	–	–	0.76	0.9	–	–	–	–	–	–	–	–	–	–	–	–	–	–
